The record followed here is ChEMBL document CHEMBL4627288, “Recent advances in TRPV4 agonists and antagonists” (Bioorg Med Chem Lett, 2020).

Assay [1] deals with Transient receptor potential cation channel subfamily V member 4 (Mus musculus, UniProt Q9EPK8). The experiment in a line: Agonist activity at mouse TRPV4.
Assay [2] has as its target T1, Transient receptor potential cation channel subfamily V member 4 (Homo sapiens, UniProt Q9HBA0). The experiment in a line: Antagonist activity at TRPV4 (unknown origin).
The target in assay [3] is T1, Transient receptor potential cation channel subfamily V member 4. The experiment in a line: Antagonist activity at human TRPV4.

T1 sequence (Q9HBA0 whole entry): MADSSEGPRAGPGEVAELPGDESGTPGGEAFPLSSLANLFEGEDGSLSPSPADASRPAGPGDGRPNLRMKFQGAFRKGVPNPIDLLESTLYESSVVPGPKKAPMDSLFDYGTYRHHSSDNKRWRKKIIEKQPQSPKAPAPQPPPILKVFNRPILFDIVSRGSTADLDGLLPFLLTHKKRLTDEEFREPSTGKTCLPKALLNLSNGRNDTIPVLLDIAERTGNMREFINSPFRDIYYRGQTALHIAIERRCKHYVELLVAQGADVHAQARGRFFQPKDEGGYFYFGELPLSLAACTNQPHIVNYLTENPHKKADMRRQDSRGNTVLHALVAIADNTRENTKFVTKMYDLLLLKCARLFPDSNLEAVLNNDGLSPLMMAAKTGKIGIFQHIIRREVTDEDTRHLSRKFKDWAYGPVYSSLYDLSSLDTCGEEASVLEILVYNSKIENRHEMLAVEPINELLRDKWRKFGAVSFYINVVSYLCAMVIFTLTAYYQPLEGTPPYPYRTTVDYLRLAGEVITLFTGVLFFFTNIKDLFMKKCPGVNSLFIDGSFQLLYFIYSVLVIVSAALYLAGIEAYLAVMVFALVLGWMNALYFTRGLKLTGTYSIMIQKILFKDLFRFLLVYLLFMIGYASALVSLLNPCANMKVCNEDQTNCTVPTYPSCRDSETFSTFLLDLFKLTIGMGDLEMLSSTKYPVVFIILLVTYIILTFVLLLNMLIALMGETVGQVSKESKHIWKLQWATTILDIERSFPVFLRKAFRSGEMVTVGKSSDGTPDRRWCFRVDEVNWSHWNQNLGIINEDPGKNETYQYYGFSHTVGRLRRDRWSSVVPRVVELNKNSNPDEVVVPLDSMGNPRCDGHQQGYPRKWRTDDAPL
Transient receptor potential cation channel subfamily V member 4 (Mus musculus, UniProt Q9EPK8), sequence (Q9EPK8 whole entry): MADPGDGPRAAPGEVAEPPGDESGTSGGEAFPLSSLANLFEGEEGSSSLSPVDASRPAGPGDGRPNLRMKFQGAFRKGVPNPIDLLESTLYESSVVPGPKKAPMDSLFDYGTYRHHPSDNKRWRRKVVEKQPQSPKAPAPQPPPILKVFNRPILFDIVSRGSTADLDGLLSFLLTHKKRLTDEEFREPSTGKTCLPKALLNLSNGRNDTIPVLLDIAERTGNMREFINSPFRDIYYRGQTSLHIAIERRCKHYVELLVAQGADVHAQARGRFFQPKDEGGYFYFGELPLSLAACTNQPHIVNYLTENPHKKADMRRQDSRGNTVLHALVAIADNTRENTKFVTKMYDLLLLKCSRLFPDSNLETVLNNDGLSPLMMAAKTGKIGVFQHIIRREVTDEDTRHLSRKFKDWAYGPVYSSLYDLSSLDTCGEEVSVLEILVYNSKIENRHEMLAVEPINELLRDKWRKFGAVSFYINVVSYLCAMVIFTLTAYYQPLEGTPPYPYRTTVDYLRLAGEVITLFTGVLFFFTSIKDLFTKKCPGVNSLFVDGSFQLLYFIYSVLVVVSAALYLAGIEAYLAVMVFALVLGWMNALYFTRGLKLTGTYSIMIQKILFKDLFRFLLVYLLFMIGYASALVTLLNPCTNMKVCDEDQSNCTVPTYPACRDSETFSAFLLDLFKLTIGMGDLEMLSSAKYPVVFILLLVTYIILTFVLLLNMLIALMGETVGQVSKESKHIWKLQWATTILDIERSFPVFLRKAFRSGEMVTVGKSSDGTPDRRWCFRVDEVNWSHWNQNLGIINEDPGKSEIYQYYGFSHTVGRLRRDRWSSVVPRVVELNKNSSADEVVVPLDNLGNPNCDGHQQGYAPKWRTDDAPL

In the case of `CCCCC/C=C\C/C=C\C/C=C\CC1OC1CCCC(=O)O` (stereo unspecified), the half-maximal effective concentration (EC50) in assay [1] came to 0.15 µM. In other words, the sub-micromolar range.

Take `N#Cc1ccc(OCC2(O)CN(S(=O)(=O)c3ccc(Cl)cc3Cl)C2)cc1F`: the IC50 in assay [2] amounted to 0.004 µM.

In turn, `O=[N+]([O-])c1cc(Cl)ccc1S(=O)(=O)N1CCN(Cc2ccccc2)CC1` yielded an EC50 in assay [1] of 0.77 µM.

As to `C/C=C(\C)[C@H]1C(C)=C[C@H]2C[C@@H](C)C[C@@H](C(=O)O)[C@@H]2[C@@]1(C)C(=O)c1cccnc1`, the IC50 in assay [3] was found to be 81.8 µM.

The molecule `C/C=C/C=C/c1c(CC=C(C)C)cc(CC=C(C)C)c(O)c1CO` had an IC50 in assay [3] of 70 µM.

In the case of `C/C=C/C=C/c1c(CC=C(C)C)cc2c(c1[C@H](Nc1ccccc1C(=O)O)[C@H]1c3c(CC=C(C)C)cc4c(c3[C@@H]3OC(=O)c5ccccc5N3[C@H]1/C=C/C)OC(C)(C)[C@H](O)C4=O)OC(C)(C)[C@@H](O)C2=O` (racemic), it took 0.0508 µM to reach half-maximal inhibition in assay [3] (IC50). Against the preceding molecule, the IC50 is about 1400-fold lower.

The EC50 is the midpoint of the concentration-response curve. Lower therefore signals higher potency in that assay. The term IC50 denotes the concentration at which inhibition is half-maximal.
